Where a name gives a salt, the structure may show the parent alone. Active and inactive are the calls of the source. Rule as the data show it: actives have a measured Kd and inactives only a lower limit.
Experiments:
[1] = target: T1, Bone morphogenetic protein receptor type-2 (Homo sapiens, UniProt Q13873)
T1 sequence (Q13873 whole entry): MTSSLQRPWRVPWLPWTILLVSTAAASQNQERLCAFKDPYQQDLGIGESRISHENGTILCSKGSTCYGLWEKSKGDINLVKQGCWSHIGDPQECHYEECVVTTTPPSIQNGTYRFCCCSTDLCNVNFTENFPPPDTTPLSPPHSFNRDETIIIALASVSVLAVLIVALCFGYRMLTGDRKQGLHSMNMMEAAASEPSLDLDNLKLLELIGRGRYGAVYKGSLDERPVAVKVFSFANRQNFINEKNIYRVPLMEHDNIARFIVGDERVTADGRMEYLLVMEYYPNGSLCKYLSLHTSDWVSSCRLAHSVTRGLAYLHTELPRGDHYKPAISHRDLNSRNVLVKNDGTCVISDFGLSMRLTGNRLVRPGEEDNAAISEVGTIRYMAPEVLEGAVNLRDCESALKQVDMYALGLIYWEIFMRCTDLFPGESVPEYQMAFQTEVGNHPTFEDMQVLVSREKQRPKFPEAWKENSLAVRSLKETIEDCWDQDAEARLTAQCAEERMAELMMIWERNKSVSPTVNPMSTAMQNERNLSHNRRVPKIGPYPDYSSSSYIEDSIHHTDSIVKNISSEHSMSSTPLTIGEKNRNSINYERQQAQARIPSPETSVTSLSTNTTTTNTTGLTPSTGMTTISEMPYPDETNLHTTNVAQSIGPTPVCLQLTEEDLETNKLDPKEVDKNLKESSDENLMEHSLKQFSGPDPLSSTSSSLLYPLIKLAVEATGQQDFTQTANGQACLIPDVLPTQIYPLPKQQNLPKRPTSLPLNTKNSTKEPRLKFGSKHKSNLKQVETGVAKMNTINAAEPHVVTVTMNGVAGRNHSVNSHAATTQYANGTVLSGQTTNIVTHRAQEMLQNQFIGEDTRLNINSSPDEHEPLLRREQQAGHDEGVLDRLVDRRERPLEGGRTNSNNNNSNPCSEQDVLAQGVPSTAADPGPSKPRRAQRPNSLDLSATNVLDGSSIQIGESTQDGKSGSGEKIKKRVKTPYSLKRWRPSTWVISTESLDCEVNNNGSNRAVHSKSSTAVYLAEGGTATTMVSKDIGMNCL

[2] = target: Glycogen synthase kinase-3 alpha (Homo sapiens, UniProt P49840)
[3] = target: Dual specificity mitogen-activated protein kinase kinase 2 (Homo sapiens, UniProt P36507)
[4] = target: T2, Serine/threonine-protein kinase TAO1 (Homo sapiens, UniProt Q7L7X3)
T2 sequence (Q7L7X3 whole entry): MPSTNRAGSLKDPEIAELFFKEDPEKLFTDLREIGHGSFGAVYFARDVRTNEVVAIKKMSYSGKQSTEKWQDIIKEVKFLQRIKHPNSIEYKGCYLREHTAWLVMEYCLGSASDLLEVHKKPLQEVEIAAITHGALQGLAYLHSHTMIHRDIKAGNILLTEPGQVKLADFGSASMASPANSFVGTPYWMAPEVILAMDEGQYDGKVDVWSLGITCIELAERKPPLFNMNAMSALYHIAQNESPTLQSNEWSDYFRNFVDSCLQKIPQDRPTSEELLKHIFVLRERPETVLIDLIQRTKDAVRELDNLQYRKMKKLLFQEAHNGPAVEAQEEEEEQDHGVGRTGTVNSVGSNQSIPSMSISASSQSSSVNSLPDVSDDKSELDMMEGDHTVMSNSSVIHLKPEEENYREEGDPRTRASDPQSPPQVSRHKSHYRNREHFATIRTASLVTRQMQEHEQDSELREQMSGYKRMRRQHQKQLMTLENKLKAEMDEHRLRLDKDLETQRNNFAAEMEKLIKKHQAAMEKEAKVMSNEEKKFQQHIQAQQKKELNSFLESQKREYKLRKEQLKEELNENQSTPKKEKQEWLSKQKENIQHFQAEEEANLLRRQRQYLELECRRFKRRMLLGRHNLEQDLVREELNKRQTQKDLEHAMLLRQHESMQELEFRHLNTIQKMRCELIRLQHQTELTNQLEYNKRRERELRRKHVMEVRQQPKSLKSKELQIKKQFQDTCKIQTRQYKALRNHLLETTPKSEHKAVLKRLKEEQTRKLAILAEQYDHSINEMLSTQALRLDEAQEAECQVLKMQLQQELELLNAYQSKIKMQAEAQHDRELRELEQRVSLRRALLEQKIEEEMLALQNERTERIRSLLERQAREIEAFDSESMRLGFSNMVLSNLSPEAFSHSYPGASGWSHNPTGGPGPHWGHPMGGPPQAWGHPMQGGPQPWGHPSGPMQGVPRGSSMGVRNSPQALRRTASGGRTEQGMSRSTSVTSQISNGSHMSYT

[5] = target: T3, Serine/threonine-protein kinase TAO3 (Homo sapiens, UniProt Q9H2K8)
T3 sequence (Q9H2K8 whole entry): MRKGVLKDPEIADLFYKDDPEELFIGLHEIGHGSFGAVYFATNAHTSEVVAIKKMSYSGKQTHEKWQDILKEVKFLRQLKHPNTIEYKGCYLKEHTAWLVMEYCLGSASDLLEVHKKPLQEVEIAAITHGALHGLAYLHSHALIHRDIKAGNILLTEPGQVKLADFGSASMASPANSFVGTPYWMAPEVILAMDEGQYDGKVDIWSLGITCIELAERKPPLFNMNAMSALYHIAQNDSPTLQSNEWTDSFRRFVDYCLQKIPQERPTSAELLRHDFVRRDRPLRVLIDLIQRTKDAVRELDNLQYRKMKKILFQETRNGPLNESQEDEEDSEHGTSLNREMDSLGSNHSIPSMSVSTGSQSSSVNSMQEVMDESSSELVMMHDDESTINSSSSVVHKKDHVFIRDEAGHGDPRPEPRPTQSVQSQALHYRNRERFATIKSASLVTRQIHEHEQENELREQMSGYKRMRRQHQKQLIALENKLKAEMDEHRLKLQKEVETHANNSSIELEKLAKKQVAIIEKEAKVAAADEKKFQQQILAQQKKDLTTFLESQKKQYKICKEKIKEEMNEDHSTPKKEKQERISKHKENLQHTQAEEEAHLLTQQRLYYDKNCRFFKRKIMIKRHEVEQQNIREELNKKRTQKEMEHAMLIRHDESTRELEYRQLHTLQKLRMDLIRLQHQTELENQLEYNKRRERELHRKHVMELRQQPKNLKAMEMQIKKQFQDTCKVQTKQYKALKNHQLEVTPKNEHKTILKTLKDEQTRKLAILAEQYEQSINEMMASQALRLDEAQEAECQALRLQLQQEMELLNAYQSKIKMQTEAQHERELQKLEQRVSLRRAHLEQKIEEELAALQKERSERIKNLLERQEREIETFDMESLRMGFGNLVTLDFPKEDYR

Wee1-like protein kinase = Wee1-like protein kinase (Homo sapiens, UniProt P30291)
Also: in the data inactive means no Kd found up to 30 µM.

Chain of Dual specificity mitogen-activated protein kinase kinase 2 (P36507 whole entry): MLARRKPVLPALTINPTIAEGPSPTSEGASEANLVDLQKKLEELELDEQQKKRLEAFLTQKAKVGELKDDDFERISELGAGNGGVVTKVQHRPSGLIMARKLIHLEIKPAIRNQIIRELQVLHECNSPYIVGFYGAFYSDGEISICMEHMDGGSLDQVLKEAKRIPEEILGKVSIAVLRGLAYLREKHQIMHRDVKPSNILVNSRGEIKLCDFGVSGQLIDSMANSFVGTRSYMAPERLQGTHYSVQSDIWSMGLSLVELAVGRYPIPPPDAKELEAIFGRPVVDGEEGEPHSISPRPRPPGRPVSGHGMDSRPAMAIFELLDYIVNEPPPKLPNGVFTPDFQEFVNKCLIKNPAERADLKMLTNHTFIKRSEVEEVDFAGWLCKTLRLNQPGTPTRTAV
Chain of Glycogen synthase kinase-3 alpha (P49840 whole entry): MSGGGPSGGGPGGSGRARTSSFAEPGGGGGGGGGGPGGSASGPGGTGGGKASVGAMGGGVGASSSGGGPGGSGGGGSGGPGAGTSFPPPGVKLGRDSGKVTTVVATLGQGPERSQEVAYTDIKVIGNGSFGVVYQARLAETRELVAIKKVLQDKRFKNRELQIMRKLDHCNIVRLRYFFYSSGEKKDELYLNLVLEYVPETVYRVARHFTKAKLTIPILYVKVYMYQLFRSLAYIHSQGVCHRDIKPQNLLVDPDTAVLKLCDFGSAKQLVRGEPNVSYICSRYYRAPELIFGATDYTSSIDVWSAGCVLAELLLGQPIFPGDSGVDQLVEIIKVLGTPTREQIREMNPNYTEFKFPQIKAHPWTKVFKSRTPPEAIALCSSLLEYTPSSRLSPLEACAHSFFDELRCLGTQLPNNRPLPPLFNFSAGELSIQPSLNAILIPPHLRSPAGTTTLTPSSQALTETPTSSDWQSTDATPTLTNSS
Chain of Wee1-like protein kinase (P30291 whole entry): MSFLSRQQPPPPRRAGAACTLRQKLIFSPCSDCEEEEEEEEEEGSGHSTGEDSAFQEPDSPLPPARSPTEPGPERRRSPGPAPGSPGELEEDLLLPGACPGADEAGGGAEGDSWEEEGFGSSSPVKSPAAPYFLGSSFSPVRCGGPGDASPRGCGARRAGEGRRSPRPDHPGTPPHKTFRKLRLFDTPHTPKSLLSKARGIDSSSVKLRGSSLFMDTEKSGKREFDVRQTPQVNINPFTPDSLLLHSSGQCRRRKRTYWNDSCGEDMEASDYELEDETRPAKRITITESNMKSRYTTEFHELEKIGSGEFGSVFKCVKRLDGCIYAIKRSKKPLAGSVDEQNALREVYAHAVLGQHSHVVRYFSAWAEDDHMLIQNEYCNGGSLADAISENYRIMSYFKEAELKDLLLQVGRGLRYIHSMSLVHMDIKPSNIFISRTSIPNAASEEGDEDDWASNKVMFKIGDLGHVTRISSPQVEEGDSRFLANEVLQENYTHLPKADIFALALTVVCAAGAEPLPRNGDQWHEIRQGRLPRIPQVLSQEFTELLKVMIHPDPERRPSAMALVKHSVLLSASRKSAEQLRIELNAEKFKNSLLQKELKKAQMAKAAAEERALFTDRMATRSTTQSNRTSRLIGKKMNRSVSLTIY

| SMILES | Kd [1] | Kd [2] | Kd [3] | Kd [4] | Kd [5] | Kd (Wee1-like protein kinase) |
| --- | --- | --- | --- | --- | --- | --- |
| COc1cc([C@@H]2c3cc4c(cc3[C@H](O)[C@H]3COC(=O)[C@@H]23)OCO4)cc(OC)c1OC [AXL-1717] | > 30 µM (inactive) | > 30 µM (inactive) | > 30 µM (inactive) | > 30 µM (inactive) | > 30 µM (inactive) | > 30 µM (inactive) |
| NC(=O)Nc1cc(-c2cccc(F)c2)sc1C(=O)N[C@H]1CCCNC1 [AZD-7762] | > 30 µM (inactive) | > 30 µM (inactive) | 1.22 µM (active) | > 30 µM (inactive) | > 30 µM (inactive) | > 30 µM (inactive) |
| Cn1cnc2c(F)c(Nc3ccc(Br)cc3F)c(C(=O)NOCCO)cc21 [BINIMETINIB] | > 30 µM (inactive) | > 30 µM (inactive) | 0.036 µM (active) | > 30 µM (inactive) | > 30 µM (inactive) | > 30 µM (inactive) |
| Cc1cc(Nc2ncc(Cl)c(Nc3ccccc3S(=O)(=O)C(C)C)n2)c(OC(C)C)cc1C1CCNCC1 [CERITINIB] | > 30 µM (inactive) | > 30 µM (inactive) | > 30 µM (inactive) | > 30 µM (inactive) | > 30 µM (inactive) | > 30 µM (inactive) |
| COc1c(OCCCN2CCOCC2)ccc2c1N=C(NC(=O)c1cnc(N)nc1)N1CCN=C21 [COPANLISIB] | > 30 µM (inactive) | > 30 µM (inactive) | > 30 µM (inactive) | > 30 µM (inactive) | > 30 µM (inactive) | > 30 µM (inactive) |
| COCC(=O)NC/C=C/c1ccc2ncnc(Nc3ccc(Oc4ccc(C)nc4)c(C)c3)c2c1 [CP-724714] | > 30 µM (inactive) | > 30 µM (inactive) | > 30 µM (inactive) | > 30 µM (inactive) | > 30 µM (inactive) | > 30 µM (inactive) |
| CCS(=O)(=O)N1CCN(c2ccc(Nc3ncc(C(N)=O)c(NC4CC4)n3)cc2)CC1 [Cerdulatinib Hydrochloride] | 4.86 µM (active) | > 30 µM (inactive) | > 30 µM (inactive) | 2.17 µM (active) | 8.26 µM (active) | > 30 µM (inactive) |
| Cc1nc2cc(-n3ncc(C(=O)c4cc5ccccc5[nH]4)c3N)ccc2[nH]1 [FGFR INHIBITOR DEBIO 1347] | > 30 µM (inactive) | > 30 µM (inactive) | > 30 µM (inactive) | > 30 µM (inactive) | > 30 µM (inactive) | > 30 µM (inactive) |
| O=C(Nc1nc2cccc(-c3ccc(CN4CCS(=O)(=O)CC4)cc3)n2n1)C1CC1 [FILGOTINIB] | > 30 µM (inactive) | > 30 µM (inactive) | > 30 µM (inactive) | > 30 µM (inactive) | > 30 µM (inactive) | > 30 µM (inactive) |
| Cc1cccc(-c2nn3c(c2-c2ccnc4ccc(C(N)=O)cc24)CCC3)n1 [GALUNISERTIB] | > 30 µM (inactive) | > 30 µM (inactive) | > 30 µM (inactive) | > 30 µM (inactive) | > 30 µM (inactive) | > 30 µM (inactive) |
| CNC(=O)c1cccc2cc(Oc3ccnc4cc(OCC5(N)CC5)c(OC)cc34)ccc12 [LUCITANIB] | > 30 µM (inactive) | > 30 µM (inactive) | > 30 µM (inactive) | > 30 µM (inactive) | > 30 µM (inactive) | > 30 µM (inactive) |
| FC(F)(F)c1ccc(/C=C/c2nc(COc3ccc(CCCCn4ccnn4)cc3)co2)cc1 [MUBRITINIB] | > 30 µM (inactive) | > 30 µM (inactive) | > 30 µM (inactive) | > 30 µM (inactive) | > 30 µM (inactive) | > 30 µM (inactive) |

More lines, now with the values ahead:

| Kd [1] | Kd [2] | Kd [3] | Kd [4] | Kd [5] | Kd (Wee1-like protein kinase) | SMILES |
| --- | --- | --- | --- | --- | --- | --- |
| > 30 µM (inactive) | > 30 µM (inactive) | > 30 µM (inactive) | > 30 µM (inactive) | > 30 µM (inactive) | > 30 µM (inactive) | CCn1c(C(=O)N(C2CC2)C2CC2)cc2c3c(ncn3C)c(Nc3cc(C)n(C)n3)nc21 [BMS-911543] |
| > 30 µM (inactive) | > 30 µM (inactive) | > 30 µM (inactive) | > 30 µM (inactive) | > 30 µM (inactive) | > 30 µM (inactive) | COc1cc2ncnc(Oc3cccc(NC(=O)Nc4cc(C(C)(C)C(F)(F)F)on4)c3)c2cc1OC [CEP-32496] |
| > 30 µM (inactive) | > 30 µM (inactive) | > 30 µM (inactive) | > 30 µM (inactive) | > 30 µM (inactive) | > 30 µM (inactive) | C#Cc1cccc(Nc2ncnc3cc(OC)c(OCCCCCCC(=O)NO)cc23)c1 [CUDC-101] |
| > 30 µM (inactive) | > 30 µM (inactive) | > 30 µM (inactive) | > 30 µM (inactive) | > 30 µM (inactive) | > 30 µM (inactive) | COc1ccc(S(=O)(=O)N(C(C)=O)c2ccccc2/C=C/c2cc[n+]([O-])cc2)cc1 [HMN-214] |
| > 30 µM (inactive) | > 30 µM (inactive) | > 30 µM (inactive) | > 30 µM (inactive) | > 30 µM (inactive) | > 30 µM (inactive) | NC1(c2ccc(-c3nc4ccn5c(=O)[nH]nc5c4cc3-c3ccccc3)cc2)CCC1 [MK-2206] |
| > 30 µM (inactive) | > 30 µM (inactive) | > 30 µM (inactive) | > 30 µM (inactive) | > 30 µM (inactive) | > 30 µM (inactive) | CN(C[C@@H]1COCCO1)S(=O)(=O)Nc1ccc2ccc3ncc(-c4cnn(C)c4)cc3c(=O)c2c1 [MK-2461] |
| > 30 µM (inactive) | > 30 µM (inactive) | > 30 µM (inactive) | > 30 µM (inactive) | > 30 µM (inactive) | > 30 µM (inactive) | Cn1cc(-c2cnc3ccc4ccc(CS(=O)(=O)NCc5ccccn5)cc4c(=O)c3c2)cn1 [MK-8033] |

Reference: ChEMBL document CHEMBL3991601, “The target landscape of clinical kinase drugs” (Science, 2017)
